Patent US20210059251A1, “PLANT GROWTH REGULATOR COMPOUNDS” (SYNGENTA PARTICIPATIONS AG, priority 2018, published 2021)

tested on: corn leaf; experiment: Dark induced senescence of corn leaf (leaf discs); format: cell-based, Corn (variety Multitop); conditions: 23° C., 8 days, 0.5% DMSO, image analysis, lower value = higher senescence induction potency
Procedure: It is known that strigolactones regulate (accelerate) leaf senescence, potentially through D14 receptor signaling. Compounds of the present invention (I) were compared to structurally-related compounds (Z) in a corn leaf dark induced senescence assay. Corn plants of variety Multitop were grown in a greenhouse with relative 75% humidity and at 23-25° C. for 6 weeks. 1.4 cm diameter leaf discs were placed into 24-well plates containing a test compounds in a concentration gradient (100 μM-0.0001 μM) at a final concentration of 0.5% DMSO. Each concentration was tested in 12 replicates. Plates were sealed with seal foil. The foil was pierced to provide gas exchange in each well. The plates were placed into the completely dark climatic chamber. Plates were incubated in the chamber with 75% humidity and at 23° C. for 8 days. On days 0, 5, 6, 7 and 8 photographs were taken of each plate, and image analysis conducted with a macro developed using the ImageJ software. The image analysis was used to determine the concentration at which 50% senescence was achieved (IC50), see Table 7. The lower the value, the higher senescence induction potency.

IC50 (concentration at which 50% senescence was achieved)	SMILES
inactive	CC1=CC(O/C=C2/C(=O)N(c3nccs3)C3c4ccccc4CC23)OC1=O (stereo not shown) [Compound Z2, reference compound]
inactive	CC1=C(C)C(O/C=C2/C(=O)N(c3nccs3)C3c4ccccc4CC23)OC1=O (stereo not shown) [Compound Z2-Me, reference compound]

same assay, conditions: Zea mays, foliar, 192 h, 23° C., 8 days, 0.5% DMSO, image analysis, lower value = higher senescence induction potency, read-out: IC50 (concentration at which 50% senescence was achieved)

IC50 [nM]	SMILES
64	CC(=O)N1C(=O)/C(=C/OC2C=C(C)C(=O)O2)C2c3ccccc3CC21 (stereo not shown) [Compound I-1, (1E)-3-acetyl-1-[(4-methyl-5-oxo-2H-furan-2-yl)oxymethylene]-4,8b-dihydro-3aH-indeno[2,1-b]pyrrol-2-one]
24	CC(=O)N1C(=O)/C(=C/OC2OC(=O)C(C)=C2C)C2c3ccccc3CC21 (stereo not shown) [Compound I-5, (1E)-3-acetyl-1-[(3,4-dimethyl-5-oxo-2H-furan-2-yl)oxymethylene]-4,8b-dihydro-3aH-indeno[2,1-b]pyrrol-2-one]
126	CC1=CC(O/C=C2/C(=O)N(c3nccs3)C3Cc4ccccc4C23)OC1=O (stereo not shown) [Compound I-9, (1E)-1-[(4-methyl-5-oxo-2H-furan-2-yl)oxymethylene]-3-thiazol-2-yl-4,8b-dihydro-3aH-indeno[2,1-b]pyrrol-2-one]
107	CC1=CC(O/C=C2/C(=O)N(c3ccccc3)C3Cc4ccccc4C23)OC1=O (stereo not shown) [Compound I-10, (1E)-1-[(4-methyl-5-oxo-2H-furan-2-yl)oxymethylene]-3-phenyl-4,8b-dihydro-3aH-indeno[2,1-b]pyrrol-2-one]
11.1	CC1=C(C)C(O/C=C2/C(=O)N(c3nccs3)C3Cc4ccccc4C23)OC1=O (stereo not shown) [Compound I-13, (1E)-1-[(3,4-dimethyl-5-oxo-2H-furan-2-yl)oxymethylene]-3-thiazol-2-yl-4,8b-dihydro-3aH-indeno[2,1-b]pyrrol-2-one]
990	CC(=O)N1C(=O)/C(=C/OC2OC(=O)C(C)=C2C)C2c3ccccc3OC21 (stereo not shown) [Compound I-25]
110	CC(=O)N1C(=O)/C(=C/OC2C=C(C)C(=O)O2)C2Cc3ccccc3C21 (stereo not shown) [Compound Z1, reference compound]
2470	CC1=CC(O/C=C2/C(=O)N(c3ccccc3)C3c4ccccc4CC23)OC1=O (stereo not shown) [Compound Z3, reference compound]

Second part, the compound before the results:

SMILES	IC50 [nM]
CC1=CC(O/C=C2/C(=O)N(CC#N)C3Cc4ccccc4C23)OC1=O (stereo not shown) [Compound I-12-E, 2-[(1E)-1-[(4-methyl-5-oxo-2H-furan-2-yl)oxymethylene]-2-oxo-4,8b-dihydro-3aH-indeno[2,1-b]pyrrol-3-yl]acetonitrile]	1550
CC(=O)N1C(=O)/C(=C/OC2OC(=O)C(C)=C2C)C2Cc3ccccc3C21 (stereo not shown) [Compound Z1-Me, reference compound]	30
CC1=CC(O/C=C2/C(=O)N(CC#N)C3c4ccccc4CC23)OC1=O (stereo not shown) [Compound Z4-E, reference compound]	3710
